From patent US20050203188A1, “Fungicidal mixtures based on benzamideoxime derivatives, benzophenones and on an azole” (priority 2002, published 2005)

Experiments:
Puccinia recondita = experiment: Curative activity against brown rust of wheat (potted wheat seedlings cv. Kanzler); assay type: in vivo; conditions: single active, 7 days
Method: (§1) The active compounds are prepared separately or together as a 10% strength emulsion in a mixture of 63% by weight of cyclohexanone and 27% by weight of emulsifier and diluted with water to the desired concentration.
(§2) Evaluation is carried out by determining the infected leaf areas in percent. These percentages are converted into efficacies. The efficacy (E) is calculated as follows using Abbot's formula: E=(1−α)*100/β • α corresponds to the fungal infection of the treated plants in % and • β corresponds to the fungal infection of the untreated (control) plants in %
(§3) An efficacy of 0 means that the infection level of the treated plants corresponds to that of the untreated control plants; an efficacy of 100 means that the treated plants were not infected.
(§4) The expected efficacies of the active compound mixtures were determined using Colby's formula [S. R. Colby, Weeds 15, 20-22 (1967)] and compared with the observed efficacies. Colby's formula: E=x+y−x−y/100 • E expected efficacy, expressed in % of the untreated control, when using the mixture of the active compounds A and B at the concentrations a and b • x efficacy, expressed in % of the untreated control, when using active compound A at a concentration of a • y efficacy, expressed in % of.the untreated control, when using active compound B at a concentration of b
Leaves of potted wheat seedlings of the cultivar “Kanzler” were dusted with spores of brown rust (Puccinia recondita). The pots were then placed in a chamber with high atmospheric humidity (90 to 95%), at 20 to 22° C., for 24 hours. During this period of time, the spores germinated and the germinal tubes penetrated into the leaf tissue. The next day, the infected plants were sprayed to runoff point with an aqueous suspension having the concentration of active compound stated below. The suspension or emulsion had been prepared from a stock solution comprising 10% of active compound in a mixture consisting of 85% of cyclohexanone and 5% of emulsifier. After the spray coating had dried on, the test plants were cultivated in a greenhouse at temperatures between 20 and 22° C. and at 65 to 70% relative atmospheric humidity for 7 days. The extent of the rust fungus development on the leaves was then determined.
The visually determined percentages of infected leaf areas were converted into efficacies as % of the untreated control. An efficacy of 0 means that the infection level of the treated plants corresponds to that of the untreated control; an efficacy of 100 means 0% infection. The expected efficacies of the combinations of active compounds were determined using Colby's formula (Colby, S. R. “Calculating synergistic and antagonistic responses of herbicide Combinations”, Weeds, 15, pp. 20-22, 1967) and compared with the observed efficacies.

[1] = test system: Erysiphe [syn. Blumeria] graminis forma specialis tritici; experiment: Activity against mildew of wheat (protective spray, potted wheat seedlings cv. Kanzler); assay type: in vivo; conditions: single active, 7 days after inoculation
Method: as §1, §2, §3, §4
Leaves of potted wheat seedlings of the cultivar “Kanzler” were sprayed to runoff point with an aqueous suspension having the concentration of active compound stated below. The suspension or emulsion had been prepared from a stock solution comprising 10% of active compound in a mixture consisting of 85% of cyclohexanone and 5% of emulsifier. 24 hours after the spray coating had dried on, the seedlings were dusted with spores of mildew of wheat (Erysiphe [syn. Blumeria] graminis forma specialis tritici). The test plants were then placed in a greenhouse at temperatures between 20 and 24° C. and 60 to 90% relative atmospheric humidity. After 7 days, the extent of the mildew development was determined visually in % infection of the total leaf area.
The visually determined percentages of infected leaf area were converted into efficacies as % of the untreated control. An efficacy of 0 means the infection level of the treated plants corresponds to that of the untreated control; an efficacy of 100 means 0% infection. The expected efficacies of the combinations of active compounds were determined using Colby's formula (Colby, S. R. “Calculating synergistic and antagonistic responses of herbicide Combinations”, Weeds, 15, pp., 20-22, 1967) and compared with the observed efficacies.

SMILES	Efficacy in % of the untreated control (Puccinia recondita; 0.015 ppm in spray liquor) [%]	Efficacy in % of the untreated control (Puccinia recondita; 0.06 ppm in spray liquor) [%]	Efficacy in % of the untreated control (Puccinia recondita; 0.25 ppm in spray liquor) [%]	Efficacy in % of the untreated control (Puccinia recondita; 1 ppm in spray liquor) [%]	Efficacy in % of the untreated control ([1]; 0.015 ppm in spray liquor) [%]	Efficacy in % of the untreated control ([1]; 0.06 ppm in spray liquor) [%]	Efficacy in % of the untreated control ([1]; 0.25 ppm in spray liquor) [%]	Efficacy in % of the untreated control ([1]; 1 ppm in spray liquor) [%]
COc1cc(C)c(C(=O)c2c(OC)ccc(Br)c2C)c(OC)c1OC [Compound II = metrafenone, metrafenone]	0	0	0	0	33	44	56	72
Fc1ccc(C2(Cn3cncn3)OC2c2ccccc2Cl)cc1 (stereo not drawn) [Compound III = epoxiconazole, epoxiconazole]	0	67	89	94	0	33	44	56
COC(=O)N(OC)c1ccccc1COc1ccn(-c2ccc(Cl)cc2)n1 [Compound IV = pyraclostrobin, pyraclostrobin]	22	33	33	78	0	0	0	33
